From patent EP1566447A1, “Glimepiride- and insulin-induced glycosylphosphatidylinositol-specific phospholipase C regulation” (priority 2004, dated 2005)
“Also recorded” adds a separate entry of the source.

Experiments:
bovine AChE = molecular target: T1, bovine AChE (Bos taurus, UniProt P23795); test: selectivity: AChE activity; format: biochemical; details: 50 µM
T1 construct: solubilized and partially purified bovine erythrocyte AChE; from tissue; host or cells: bovine erythrocytes
Protocol: Electroporation was performed as described in "Müller, G. et al., (2000) Mol. Cell. Biol. 20: 4708-4723". Lipolysis was determined as release of glycerol or fluorescent NBD-FA from prelabeled and isoproterenol-stimulated adipocytes as described in "Müller, G. et al., (2003) Biochimie 85: 1245-1256". Gce1 was detected by photolabeling of solubilized plasma membranes or hc/IcDIGs (10-50 µg protein) with 8-N3-[^32P]cAMP and subsequent phosphorimaging as described in "Müller, G. et al., (1994) Biochemistry 33: 12149-12159". 5'-Nuc, aP and AChE activities were measured according to "Eliakim, R. et al., (1990) Biochim. Biophys. Acta 1355: 293-302". Protein was determined using the BCA protein determination kit from Pierce (Rockford, IL) and BSA as calibration standard. SDS-PAGE was performed using precast gels (Novex, San Diego, CA; 10 % Bis-Tris resolving gel, morpholinopropanesulfonic acid-SDS running buffer). Lumiimages were evaluated on a Lumilmager using Lumilmager software (Roche Diagnostics). Phosphor- and fluorescence images were processed and quantified using the Storm 860 Phosphorlmager system (Molecular Dynamics, Gelsenkirchen, Germany). Figures were constructed using the Adobe Photoshop software (Adobe Systems, Mountain View, CA).
Fig. 3: Selectivity of GPI-2350. […]

Isolated rat adipocytes = test: glimepiride-induced redistribution of signaling proteins within DIGs; format: cell-based; details: max. effective conc. (50 µM)
Pancreatic lipase (PL) = molecular target: T2, Pancreatic lipase (PL) (Sus scrofa, UniProt P00591); test: selectivity: pancreatic lipase assay; format: biochemical, porcine; details: 50 µM
T2 construct: crude porcine pancreatic lipase (PL); purchased Sigma/Aldrich (Deisenhofen, Germany); host or cells: porcine pancreas (crude preparation)
T2 sequence (P00591 1-450): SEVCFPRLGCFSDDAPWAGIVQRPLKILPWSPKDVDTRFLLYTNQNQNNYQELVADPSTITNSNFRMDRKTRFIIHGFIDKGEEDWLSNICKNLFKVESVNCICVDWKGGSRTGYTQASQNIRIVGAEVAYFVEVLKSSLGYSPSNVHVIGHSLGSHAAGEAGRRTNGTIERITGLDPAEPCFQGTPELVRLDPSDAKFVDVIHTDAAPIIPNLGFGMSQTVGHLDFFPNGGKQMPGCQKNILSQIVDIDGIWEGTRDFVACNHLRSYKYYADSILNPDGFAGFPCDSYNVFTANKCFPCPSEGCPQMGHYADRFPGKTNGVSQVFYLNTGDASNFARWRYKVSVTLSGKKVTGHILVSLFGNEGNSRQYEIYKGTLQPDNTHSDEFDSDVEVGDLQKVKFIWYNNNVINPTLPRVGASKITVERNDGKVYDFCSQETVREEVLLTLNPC
T2 sequence (P02703 23-112 partner): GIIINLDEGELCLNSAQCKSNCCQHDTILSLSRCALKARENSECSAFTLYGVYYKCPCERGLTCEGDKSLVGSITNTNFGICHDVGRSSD
Protocol: Hormone-sensitive lipase (HSL) and lipoprotein lipase (LPL) were measured using a radiolabeled triolein droplet emulsion as described in "Vertesy et al., (2002) Journal Antibiotics 55:480-494". Pancreatic lipase (PL) was determined by incubation of 0.25 mmol tributyrin in 2 ml of 5 mM Tris/HCl (pH 6.5), 6 mM sodium taurodeoxycholate, 150 mM NaCl, 1 mM CaCl2 with porcine PL and colipase in the same buffer using a recording pH stat (stirring at 1000 rpm at 25°C) with the pH adjusted to 6.5. PC-PLC was assayed by incubation of 0.2 ml of 10 mM dipalmitoyllecithin, 0.1 ml of 10 mM SDC and 0.1 ml of 0.03 M CaCl2 with bacterial PC-PLC (in 50 mM Tris/HCl, pH 7.5, 0.1 % BSA) for 10 min at 37°C. The reaction was terminated by addition of 0.1 ml of 50 % TCA and subsequently of 2.5 ml of […]. After centrifugation (1500xg, 15 min), 0.2-ml portions of the upper methanol/water phase (~ 1.33 ml) was removed, supplemented with 0.5 ml of 60 % HClO4, then heated at 170°C for 1 h and finally analyzed for inorganic phosphate. Mammalian PI-PLC was measured by incubation of 0.1 ml of 10 mM PI, 0.1 ml of 0.8 % sodium deoxycholate, 0.1 % BSA, 0.2 ml of 100 mM sodium borate (pH 7.5) and rat liver PI-PLC for 20 min at 37°C. The reaction was terminated and further processed as described for the PC-PLC. […] Radioactive phosphatidic acid was detected by phosphorimaging. […]

T1 sequence (P23795 other isoform, or with tags, fused parts or gaps): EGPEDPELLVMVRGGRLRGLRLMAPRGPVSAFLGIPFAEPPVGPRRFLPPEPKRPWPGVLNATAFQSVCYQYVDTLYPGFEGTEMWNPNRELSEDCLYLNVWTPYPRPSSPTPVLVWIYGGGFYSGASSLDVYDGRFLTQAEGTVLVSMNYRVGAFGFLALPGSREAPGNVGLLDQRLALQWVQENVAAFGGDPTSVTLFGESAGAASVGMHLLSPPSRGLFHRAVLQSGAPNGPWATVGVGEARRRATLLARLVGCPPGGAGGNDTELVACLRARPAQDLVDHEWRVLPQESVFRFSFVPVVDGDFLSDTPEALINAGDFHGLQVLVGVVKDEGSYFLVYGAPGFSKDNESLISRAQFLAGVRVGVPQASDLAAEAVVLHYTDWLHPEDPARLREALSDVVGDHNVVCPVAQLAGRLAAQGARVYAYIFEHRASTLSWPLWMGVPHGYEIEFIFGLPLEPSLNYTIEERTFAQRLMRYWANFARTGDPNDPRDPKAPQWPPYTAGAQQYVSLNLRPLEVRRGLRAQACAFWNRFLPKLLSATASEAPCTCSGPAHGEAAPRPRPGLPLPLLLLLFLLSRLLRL

CCCCCCCCCCCCP1(=O)O[C@@H]2[C@H](O)[C@@H](O)[C@H](O)[C@@H](O)[C@@H]2O1 (mixture of isomers) [GPI-2350, myo-inositol-1,2-cyclo-dodecylphosphonic acid]
effect on AChE activity (bovine AChE): not significantly affected
effect on glimepiride-induced redistribution from hcDIGs to IcDIGs (Isolated rat adipocytes): almost complete blockade; also recorded: almost completely abolished
effect on lipase activity (Pancreatic lipase (PL)): not significantly affected
